Values quoted from earlier work, collected in patent US20110213558A1, “METHOD FOR PREDICTING ACTIVATION ENERGY USING AN ATOMIC FINGERPRINT DESCRIPTOR OR AN ATOMIC DESCRIPTOR” (Bioinformatics & Molecular Design Research Center, priority 2008, published 2011).
Like-named read-outs stand apart in the source and are kept apart here.

Assays:
cytochrome P450 [1] = settings: in vitro
cytochrome P450 [2] = settings: in vitro; remark: listed apart in the source

Row | SMILES | Experimental metabolic rate (cytochrome P450 [1]; atom # 1) | Experimental metabolic rate (cytochrome P450 [1]; atom # 2) | Experimental metabolic rate (cytochrome P450 [2]; atom # 2) | Experimental metabolic rate (cytochrome P450 [2]; atom # 3) | Experimental metabolic rate (cytochrome P450 [2]; atom # 4) | Experimental metabolic rate (cytochrome P450 [1]; atom # 3)
1 | Cc1ccc(CCl)cc1 [1-chloromethyl-4-methyl-benzene] | 16.0 | 84.0 | – | – | – | –
2 | Clc1ccccc1 [Chlorobenzene] | – | – | 17-19 | 5-9 | 71-79 | –
3 | CCc1ccccc1 [Ethylbenzene] | 0.2 | 99.8 | – | – | – | –
4 | CCCCCC [Hexane] | 4.5 | 49 | – | – | – | 46.5
5 | COc1ccccc1 [Methoxybenzene] | – | – | 15-24 | 1-3 | 62-75 | –
6 | CCCCCCCC [Octane] | 2.5 | 97.5 | – | – | – | –
